# Data from ChEMBL document CHEMBL4402558, “Designing Chimeric Molecules for Drug Discovery by Leveraging Chemical Biology” (J Med Chem, 2020).
# Species on record: Homo sapiens
# Assay: Antitumour activity against human DLBCL patients assessed as response rate co-treatment with rituximab relative to control
# Format: functional
smiles,measurement,value
Cn1c(CCCC(=O)O)nc2cc(N(CCCl)CCCl)ccc21,Activity,18%
